Data on eight molecules can be found in US9341616B2, “Sweet taste receptor chimeric proteins and use thereof” (AJINOMOTO CO., INC., priority 2014, dated 2016).

Like-named read-outs stand apart in the source and are kept apart here. Residues, ends and D or L forms follow the SMILES beside them.

The target in one assay is h-mT1R2-481/mT1R3 (UniProt Q8TE23+Q925D8, A537S/A564V/A568V/A570T/A649T/A658V/A782V/E530V/E534N/E542M/E548N/F525Y/F665L/G696N/G701T/H484Y/H528R/I481V/I486P/I490V/I510L/I518V/I595M/I643V/I645L/I692L/I695G/K504M/K626T/K714N/L521P/L571I/L578I/L610P/L631F/L636F/L639V/L688V/L702I/L734M/L800F/M492I/M616G/M682V/M690V/M748V/N540G/N541S/N721H/P638T/P824S/Q536L/Q546K/Q555R/Q676H/R498S/R667S/S501P/S547N/S550A/S628F/S663R/S670G/S681F/S703N/S727G/S784D/S804G/T529S/T549I/T609V/T629S/T642S/T705I/T706G/T716I/V508I/V512P/V557A/V585L/V613L/V617M/V673M/V687A/V691A/V694A/V718L/V741L/V774I/V791M/Y533F/Y615F/Y671F/Y769S/Y783H). The settings on record: genes h-mT481/mT3 (h-mT1R2-481, mT1R3), HEK293E cells.

For the next assay, the target named is h-mT1R2-EX5/mT1R3 (UniProt Q8TE23+Q925D8, A537S/A564V/A568V/A570T/A649T/A658V/A782V/E530V/E534N/E542M/E548N/F525Y/F665L/G696N/G701T/H528R/I490V/I510L/I518V/I595M/I643V/I645L/I692L/I695G/K504M/K626T/K714N/L521P/L571I/L578I/L610P/L631F/L636F/L639V/L688V/L702I/L734M/L800F/M492I/M616G/M682V/M690V/M748V/N540G/N541S/N721H/P638T/P824S/Q536L/Q546K/Q555R/Q676H/R498S/R667S/S501P/S547N/S550A/S628F/S663R/S670G/S681F/S703N/S727G/S784D/S804G/T529S/T549I/T609V/T629S/T642S/T705I/T706G/T716I/V508I/V512P/V557A/V585L/V613L/V617M/V673M/V687A/V691A/V694A/V718L/V741L/V774I/V791M/Y533F/Y615F/Y671F/Y769S/Y783H). The settings on record: Table 4; genes h-mTEX5/mT3 (h-mT1R2-EX5, mT1R3); HEK293E cells.
Chain of h-mT1R2-EX5/mT1R3 (Q8TE23 with tags, fused parts or gaps with the stated changes limits assumed): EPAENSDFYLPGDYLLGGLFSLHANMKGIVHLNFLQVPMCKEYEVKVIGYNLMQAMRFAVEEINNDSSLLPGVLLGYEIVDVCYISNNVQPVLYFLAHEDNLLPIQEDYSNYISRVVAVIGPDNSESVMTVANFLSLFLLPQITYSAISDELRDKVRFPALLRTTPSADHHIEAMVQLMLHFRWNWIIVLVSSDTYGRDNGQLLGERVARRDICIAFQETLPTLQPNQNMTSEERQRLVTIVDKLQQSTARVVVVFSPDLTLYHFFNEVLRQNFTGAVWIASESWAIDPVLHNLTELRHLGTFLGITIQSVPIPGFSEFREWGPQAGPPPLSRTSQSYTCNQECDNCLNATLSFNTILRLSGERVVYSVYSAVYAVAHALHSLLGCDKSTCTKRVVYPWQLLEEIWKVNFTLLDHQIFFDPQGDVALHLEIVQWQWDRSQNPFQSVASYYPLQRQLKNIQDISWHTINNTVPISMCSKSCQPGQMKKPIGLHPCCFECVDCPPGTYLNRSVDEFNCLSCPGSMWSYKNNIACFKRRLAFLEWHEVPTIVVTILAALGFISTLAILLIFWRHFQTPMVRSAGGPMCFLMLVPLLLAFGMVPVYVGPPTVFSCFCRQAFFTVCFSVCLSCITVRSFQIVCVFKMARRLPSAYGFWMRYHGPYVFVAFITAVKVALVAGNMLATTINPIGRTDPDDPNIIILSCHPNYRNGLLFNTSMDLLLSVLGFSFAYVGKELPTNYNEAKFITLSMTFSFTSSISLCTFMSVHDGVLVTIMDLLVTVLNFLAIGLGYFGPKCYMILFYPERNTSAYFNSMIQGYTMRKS
Chain of h-mT1R2-EX5/mT1R3 (Q925D8 21-858, stated change not applied): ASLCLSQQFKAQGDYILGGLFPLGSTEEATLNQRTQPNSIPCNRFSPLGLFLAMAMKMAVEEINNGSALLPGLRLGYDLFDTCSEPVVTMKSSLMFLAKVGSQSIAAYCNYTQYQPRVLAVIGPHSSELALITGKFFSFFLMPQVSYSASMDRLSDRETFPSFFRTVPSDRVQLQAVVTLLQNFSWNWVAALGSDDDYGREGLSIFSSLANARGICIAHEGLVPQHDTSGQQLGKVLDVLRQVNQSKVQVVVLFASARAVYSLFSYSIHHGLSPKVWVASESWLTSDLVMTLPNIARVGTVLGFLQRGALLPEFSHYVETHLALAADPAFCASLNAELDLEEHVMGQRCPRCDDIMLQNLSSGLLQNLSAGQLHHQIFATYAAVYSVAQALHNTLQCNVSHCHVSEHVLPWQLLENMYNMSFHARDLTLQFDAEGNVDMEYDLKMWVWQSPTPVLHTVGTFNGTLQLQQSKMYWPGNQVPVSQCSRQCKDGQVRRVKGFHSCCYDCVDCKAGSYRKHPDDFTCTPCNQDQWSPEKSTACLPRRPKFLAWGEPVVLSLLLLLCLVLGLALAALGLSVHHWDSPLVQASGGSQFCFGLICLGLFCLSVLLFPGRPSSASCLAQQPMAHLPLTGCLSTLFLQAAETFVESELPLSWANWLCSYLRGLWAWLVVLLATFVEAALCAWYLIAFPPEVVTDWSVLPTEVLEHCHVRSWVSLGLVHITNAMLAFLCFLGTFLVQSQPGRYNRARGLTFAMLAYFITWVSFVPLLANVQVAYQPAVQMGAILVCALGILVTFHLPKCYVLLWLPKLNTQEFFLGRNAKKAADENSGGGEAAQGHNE

Chain of h-mT1R2-481/mT1R3 (Q8TE23 with tags, fused parts or gaps with the stated changes limits assumed): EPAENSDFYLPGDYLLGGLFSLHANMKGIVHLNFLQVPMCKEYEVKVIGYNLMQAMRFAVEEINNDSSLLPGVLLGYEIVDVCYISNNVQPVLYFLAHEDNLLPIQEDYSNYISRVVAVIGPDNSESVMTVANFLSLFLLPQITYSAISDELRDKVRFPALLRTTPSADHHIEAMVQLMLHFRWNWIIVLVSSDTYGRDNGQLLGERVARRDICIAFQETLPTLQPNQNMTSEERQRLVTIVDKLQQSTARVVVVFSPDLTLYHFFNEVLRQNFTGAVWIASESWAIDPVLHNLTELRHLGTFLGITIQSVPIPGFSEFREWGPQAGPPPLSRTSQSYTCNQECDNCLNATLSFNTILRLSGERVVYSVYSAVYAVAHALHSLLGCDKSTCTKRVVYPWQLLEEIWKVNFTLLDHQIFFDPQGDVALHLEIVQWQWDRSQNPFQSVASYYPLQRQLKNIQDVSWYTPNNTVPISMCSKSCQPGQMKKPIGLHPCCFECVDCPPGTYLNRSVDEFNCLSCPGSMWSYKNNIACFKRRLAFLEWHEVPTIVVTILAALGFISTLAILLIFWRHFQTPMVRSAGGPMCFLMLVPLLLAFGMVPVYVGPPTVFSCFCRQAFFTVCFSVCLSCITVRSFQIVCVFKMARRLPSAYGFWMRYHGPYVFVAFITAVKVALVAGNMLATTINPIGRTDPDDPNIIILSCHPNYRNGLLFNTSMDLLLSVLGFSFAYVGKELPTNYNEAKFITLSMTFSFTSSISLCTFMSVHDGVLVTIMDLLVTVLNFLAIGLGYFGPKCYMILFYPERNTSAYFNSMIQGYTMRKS
Chain of h-mT1R2-481/mT1R3 (Q925D8 21-858, stated change not applied): as the sequence (Q925D8 21-858, stated change not applied) above

For the molecule `CC1=CC(=O)NS(=O)(=O)O1` [Acesulfame K, acesulfame potassium], the figures for the S/N on h-mT1R2-481/mT1R3 (Table 3), on h-mT1R2-481/mT1R3 (Table 4) and at h-mT1R2-EX5/mT1R3 were 3.0, 3.7 and 3.7, respectively.
With `COC(=O)[C@H](Cc1ccccc1)NC(=O)[C@H](CC(=O)O)NCCCc1ccc(OC)c(O)c1` [Advantame, advantame], the S/N amounted to 6.6 on h-mT1R2-481/mT1R3 (Table 3), 7.1 on h-mT1R2-481/mT1R3 (Table 4) and 7.0 on h-mT1R2-EX5/mT1R3.
As to `COC(=O)[C@H](Cc1ccccc1)NC(=O)[C@@H](N)CC(=O)O` [Aspartame, aspartame] (HELM PEPTIDE1{D.F.[CO[*:1]]}$$$$V2.0), the S/N on h-mT1R2-481/mT1R3 (Table 3) is on record as 4.3; on h-mT1R2-481/mT1R3 (Table 4), 5.8; at h-mT1R2-EX5/mT1R3, 5.5.
Turning to `COC(=O)[C@H](Cc1ccccc1)NC(=O)[C@H](CC(=O)O)NCCC(C)(C)C` [Neotame, neotame], the figures for the S/N on h-mT1R2-481/mT1R3 (Table 3), at h-mT1R2-481/mT1R3 (Table 4) and on h-mT1R2-EX5/mT1R3 were 5.4, 5.4 and 5.2, respectively.
`C[C@H](NC(=Nc1ccc(C#N)cc1)NCC(=O)O)c1ccccc1` [SC-45647, [3-[(S)-1-phenylethyl]-2-(4-cyanophenyl)guanidino]acetic acid]: the S/N at h-mT1R2-481/mT1R3 (Table 3) was 5.1; on h-mT1R2-481/mT1R3 (Table 4) it was 5.2; on h-mT1R2-EX5/mT1R3, 5.3.
`O=C1NS(=O)(=O)c2ccccc21.[Na]` [Saccharin Na, sodium saccharin]: the results for the S/N at h-mT1R2-481/mT1R3 (Table 3), on h-mT1R2-481/mT1R3 (Table 4) and at h-mT1R2-EX5/mT1R3 were 3.9, 4.4 and 3.8, respectively.
Take `OC[C@H]1O[C@H](O[C@]2(CCl)O[C@H](CCl)[C@@H](O)[C@@H]2O)[C@H](O)[C@@H](O)[C@H]1Cl` [Sucralose, sucralose]: the S/N at h-mT1R2-481/mT1R3 (Table 3) is recorded as 5.0; at h-mT1R2-481/mT1R3 (Table 4), 5.7; on h-mT1R2-EX5/mT1R3, 5.9.
In the same order, the values of `OC[C@H]1O[C@@](CO)(O[C@H]2O[C@H](CO)[C@@H](O)[C@H](O)[C@H]2O)[C@@H](O)[C@@H]1O` [Sucrose, sucrose] are 2.8, 3.9 and 3.7.
